In US20180072675A1, “ANTIMICROBIAL PYRIDINOHYDRAZIDE AND HYDRAZOMETHYLPYRIDINE-BASED AGENTS” (Board of Supervisors of Louisiana State University and …, priority 2015, published 2018):
Entries after “also recorded” stand apart in the source; their conditions may differ.

Experiments:
[1] = system: Candida albicans ATCC Accession No. 10231; test: Checkerboard synergy assay with fluconazole; format: cell-based; conditions: for FIC Fluc: average FIC of fluconazole at varying concentrations of the test drug; for FIC Test: average FIC of the test drug at varying concentrations of fluconazole; for Activity (interaction with fluconazole): from FIC index; for FIC Index: sum of the two FICs, <1 synergistic, >=1 antagonistic
Protocol: Considering that two different modes of activity (cidal and static) were observed depending on the structural motifs present in our analogs, we performed a series of checkerboard assays to determine if representative active compounds were in fact acting in synergy with the azole, fluconazole. Each of these assays tested multiple concentrations of the selected analog in the presence of multiple concentrations of fluconazole. All checkerboard assays were prepared in 96-well plates. 200 μl of previously prepared drug solutions were added to each well in column 2. Using a multichannel pipette, 100 μl from each well in column 2 was serially diluted (1:2) horizontally across the plate, stopping at column 10. Contents of each well were mixed thoroughly. Column 11 was reserved for fluconazole MIC control and contained no other drug. 100 μl of media was added to each well, column 2-10. Each well was mixed thoroughly with a multichannel pipette. 100 μl was then removed and discarded from these wells. 100 μl of previously prepared fluconazole dilution was added to each well in row B. Using a multichannel pipette, 100 μl from each well was serially diluted (1:2) vertically down the plate, stopping at row F. Contents of each well were mixed thoroughly. Row G was reserved for tested drug MIC control and contained no fluconazole. Well G11 contained neither drug and served as a drug-free growth control. The final 100 μl from each well in row F was discarded.
The fungal samples were prepared from glycerol stocks of Candida albicans ATCC Accession No. 10231. The inoculum's concentration was adjusted to a McFarland standard between 0.08 and 0.12. Inoculum was then diluted at a ratio of 1:37.5 in buffered media. 100 μl of inoculum-media solution was added to each well. Following inoculation, the 96-well plates were wrapped in parafilm to prevent evaporation and incubated for overnight at 35° C. After 18 h, the wells showing growth were recorded.
Synergistic activity was determined based on the MIC read from these plates. The fractional inhibitory concentration (FIC) for a given well is the ratio of the minimum inhibitory concentration of one drug A in the presence another drug B to the minimum inhibitory concentration with only drug A. The FIC was calculated for the test drug in each of the wells along the growth/no-growth interface at varying concentrations of fluconazole, then these values were averaged to determine the average FIC for the test drug. The same process was used to calculate the average FIC for fluconazole at varying concentrations of the test drug. The sum of these two FICs gives the FIC index which can be used to determine the synergistic effect between the two drugs (Hsieh et al., Diagn. Microbiol. Infect. Dis. (1993) 16: 343-349). An FIC index value less than 1 indicated synergistic interactions between the two drugs while an FIC index value greater than or equal to 1 indicated antagonistic interactions.

Candida strain TW17 = test: Time-kill assay; format: cell-based, Candida albicans; conditions: for Cidal vs Static: four times the MIC for TW17, 48 h; for colonies observed in time-kill assay: after 24 h
Protocol: FIG. 9 illustrates time-kill assays, for representative analogs that were active against the azole-resistant TW17, to determine the cidal or static nature of the analog tested. 100 μl of each sample was spread onto YM agar plates with a sterile bent spreading rod. Plates were incubated at 35° C. overnight and colonies were then counted on each plate.
One of the objectives of this study was to determine the cidal or static nature of the analogs that were active against such as TW17, the azole-resistant clinical isolate. Azoles affect Candida spp. by inhibiting ergosterol biosynthesis, and ultimately prevent their reproduction. This effect has led to the classification of azoles as fungistats. Determining the fungistatic or fungicidal nature of the synthesized compounds of the present disclosure allows a comparison to azoles, in addition to improving the understanding of how the structural motifs might lend toward an alternate mechanism of action. Therefore, time-kill assays were performed using the representative analogs that were active against the azole-resistant TW17 at concentrations at or below 8 μg/mL.
Solid drugs were dissolved in DMSO to a concentration of 10 mg/ml. This stock solution was then further diluted in water to the desired experimental concentration, determined to be four times that of the MIC for the Candida strain TW17 (as reported in the Tables).
Individual colonies of TW17 were suspended in 5 ml of sterile water and adjusted to achieve a McFarland reading between 0.08 and 0.12. The inoculum was then further diluted in sterile water at a ratio of 1:100. Three […] tissue culture tubes were prepared by combining 2.5 ml of above diluted inoculum, 21.7 ml of HEPES buffered RPMI-1640 media, and 800 μl of experimental drug dilution. A “Growth Control” tube was prepared by combining 2.5 ml of inoculum, 21.7 HEPES buffered RPMI-1640 media, and 800 μl of water-DMSO solution equal to the DMSO concentration of the experimental drug dilution. A “Sterile Control” tube was prepared by combining 24.2 ml of HEPES-buffered RPMI-1640 media and 800 μl of water-DMSO solution as in the “Growth Control”. All tubes were incubated for 48 hours at 35° C., 50 rpm. 500 μl samples were taken from the tubes at time points of predetermined intervals during this incubation.
Time points for the “Kill-Curve” and “Growth Control” tubes were taken at 0, 1, 2, 4, 6, 8, 24, and 48 h after the start of incubation. Time points for “Sterile Control” were taken at 0 and 48 hours. Each time point sample was serially diluted 1:10 in sterile 0.9% NaCl solution up to 5 times. 100 μl of each sample was spread onto YM agar plates with a sterile bent spreading rod. Plates were incubated at 35° C. overnight and colonies were then counted on each plate. Colonies on plates from diluted time points were used to estimate uncountable undiluted samples. The number of colonies in undiluted samples was estimated to be 10^n times greater than the diluted sample, where n was the number of dilutions made.

## Cc1ccc(O)c(/C=N/NC(=O)c2ccccn2)c1 [AR2, (E)-N′-(2-Hydroxy-5-methylbenzylidene)picolinohydrazide]
[1]
  FIC Fluc: 1.00
  FIC Test: 1.00
  Activity (interaction with fluconazole): Antagonistic
  FIC Index: 2.00
Candida strain TW17
  Cidal vs Static: Static

## O=C(NN=Cc1cc([N+](=O)[O-])ccc1O)c1cccnc1 [AR12]
[1]
  FIC Fluc: 1.00
  FIC Test: 1.00
  Activity (interaction with fluconazole): Antagonistic
  FIC Index: 2.00
Candida strain TW17
  Cidal vs Static: Static

## O=C(NN=Cc1cc([N+](=O)[O-])ccc1O)c1ccncc1 [AR18]
[1]
  FIC Fluc: 1.00
  FIC Test: 1.00
  Activity (interaction with fluconazole): Antagonistic
  FIC Index: 2.00
Candida strain TW17
  Cidal vs Static: Static

## O=C(N/N=C/c1cc(Br)ccc1O)c1ccc[n+]([O-])c1 [AR27]
[1]
  FIC Fluc: 0.92
  FIC Test: 1.00
  Activity (interaction with fluconazole): Antagonistic
  FIC Index: 1.92
Candida strain TW17
  Cidal vs Static: fungistatic; also recorded: Static

## C(=N\Nc1ccccc1)/c1cccnc1 [AR44]
[1]
  FIC Fluc: 1.00
  FIC Test: 0.90
  Activity (interaction with fluconazole): Antagonistic
  FIC Index: 1.90
Candida strain TW17
  colonies observed in time-kill assay: no observed colonies
  Cidal vs Static: fungicidal; also recorded: Cidal

## C(=N\Nc1ccccc1)/c1ccncc1 [AR48]
[1]
  FIC Fluc: 3.87
  FIC Test: 0.80
  Activity (interaction with fluconazole): Antagonistic
  FIC Index: 4.67
Candida strain TW17
  colonies observed in time-kill assay: no observed colonies
  Cidal vs Static: fungicidal; also recorded: Cidal
